In US20010044445A1, “AZOLE INHIBITORS OF CYTOKINE PRODUCTION” (priority 1999, published 2001):

Legend:
[1] = system: Human peripheral blood mononuclear cells; assay: Human Concanavalin-A Proliferation Assay (Con HU Assay); type: cell-based; details: concanavalin-A stimulated human PBMC; for inhibition at 10 µM / IC50 / inhibition at 1 µM / inhibition at 100 µM: Homo sapiens, PBMC; for inhibition at 10 µM / inhibition at 1 µM / inhibition at 100 µM: 72 h, read-out: % Inhibition of proliferation (at concentrations of 1,10, or 100 μm); for inhibition at 10 µM: concentration 10 μm (in parentheses in the cell); for IC50: tritiated thymidine; for inhibition at 100 µM: concentration 100 μm (in parentheses in the cell)
Method in brief: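 Proliferation read as tritiated thymidine uptake (0.5 μCi/well, 6 h pulse on day 3) in human PBMC cultured 3 days with 2.5 μg/ml (final) concanavalin-A. Cells, 50,000 per well in supplemented RPMI 1640 with 10% FBS, received compound 15 min before mitogen.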

[2] = concentration 1 μm (in parentheses in the cell), 3 days

Compound	melting point	inhibition at 10 µM ([1]; 3 days)	IC50 [1]	inhibition at 1 µM [1, 2]	inhibition at 100 µM ([1]; 3 days)	% Inhibition of proliferation (at concentrations of 1,10, or 100 μm) [1, 2]
O=C(Nc1ccc(-n2nc(C(F)(F)F)cc2C(F)(F)F)cc1)c1cc(F)c(F)c(F)c1 [Example 227, N-[4-[3,5-bis(trifluoromethyl)-1H-pyrazol-1-yl]phenyl]-3,4,5-trifluorobenzamide]	158 to 159 °C	100%	257 nM	–	–	–
O=C(Nc1ccc(-n2nc(C(F)(F)F)cc2C(F)(F)F)cc1)Nc1ccc(Cl)c([N+](=O)[O-])c1 [Example 79, N-[4-[3,5-bis(trifluoromethyl)-1H-pyrazol-1-yl]phenyl]-N′-(4-chloro-3-nitrophenyl)urea]	207 to 209 °C	–	–	9%	–	–
Cc1nc(C)c(C(=O)Nc2ccc(-n3nc(C(F)(F)F)cc3C(F)(F)F)cc2)s1 [Example 105, N-[4-[3,5-bis(trifluoromethyl)-1H-pyrazol-1-yl]phenyl]-2,4-dimethyl-5-thiazolecarboxamide]	158 to 159 °C	100%	387 nM	–	–	–
COc1cccc2cc(C(=O)Nc3ccc(-n4nc(C(F)(F)F)cc4C(F)(F)F)cc3)oc12 [Example 49, N-[4-[3,5-bis(trifluoromethyl)-1H-pyrazol-1-yl]phenyl]-7-methoxy-2-benzofurancarboxamide]	109 to 110 °C	–	–	9%	–	–
N#Cc1ccc(C(=O)Nc2ccc(-n3nc(C(F)(F)F)cc3C(F)(F)F)cc2)cc1 [Example 67, N-[4-[3,5-bis(trifluoromethyl)-1H-pyrazol-1-yl]phenyl]-4-cyanobenzamide]	169 to 171 °C	–	254 nM	–	100%	–
CC(C(=O)Nc1ccc(-n2nc(C(F)(F)F)cc2C(F)(F)F)cc1)c1ccc(C(=O)c2cccs2)cc1 (stereo not drawn) [Example 177, N-[4-[3,5-bis(trifluoromethyl)-1H-pyrazol-1-yl]phenyl]-α-methyl-4-(2-thienylcarbonyl)benzeneacetamide]	< 80 °C	–	–	–	–	4(1) %
Cn1cc(C(=O)Nc2ccc(-n3nc(C(F)(F)F)cc3C(F)(F)F)cc2)cn1 [Example 265, N-[4-[3,5-bis(trifluoromethyl)-1H-pyrazol-1-yl]phenyl]-1-methyl-1H-pyrazole-4-carboxamide]	211 to 212 °C	90%	3810 nM	–	–	–
CCCCCc1ccc(C(=O)Nc2ccc(-n3nc(C(F)(F)F)cc3C(F)(F)F)cc2)c(=O)o1 [Example 4, N-[4-[3,5-bis(trifluoromethyl)-1H-pyrazol-1-yl]phenyl]-2-oxo-6-pentyl-2H-pyran-3-carboxamide]	140 to 141 °C	–	28800 nM	–	82%	–
CCCCCCOc1ccc(C(=O)Nc2ccc(-n3nc(C(F)(F)F)cc3C(F)(F)F)cc2)cc1 [Example 74, N-[4-[3,5-bis(trifluoromethyl)-1H-pyrazol-1-yl]phenyl]-4-(hexyloxy)benzamide]	153 to 155 °C	–	22800 nM	–	83%	–
O=C(Nc1ccc(-n2nc(C(F)(F)F)cc2OC(F)F)cc1)c1cccc(F)c1F [Example 354, N-(4-(5-(difluoromethoxy)-3-(trifluoromethyl)-1H-pyrazol-1-yl)phenyl)-2,3-difluorobenzamide]	154 to 155 °C	–	75 nM	–	–	–
COc1cc(C(F)(F)F)nn1-c1ccc(NC(=O)c2cccnc2F)cc1 [Example 317, 2-fluoro-N-(4-(5-methoxy-3-(trifluoromethyl)-1H-pyrazol-1-yl)phenyl)nicotinamide]	153 to 154 °C	–	186 nM	–	–	–
COc1cc(Cl)ccc1C(=O)Nc1ccc(-n2nc(C(F)(F)F)cc2C(F)(F)F)cc1 [Example 176, N-[4-[3,5-Bis(trifluoromethyl)-1H-pyrazol-1-yl]phenyl]-4-chloro-2-methoxybenzamide]	178 to 180 °C	–	–	12%	–	–
CSCCC(=O)Nc1ccc(-n2nc(C(F)(F)F)cc2C(F)(F)F)cc1 [Example 65, N-[4-[3,5-bis(trifluoromethyl)-1H-pyrazol-1-yl]phenyl]-3-(methylthio)propanamide]	122 to 123 °C	–	1820 nM	–	98%	–
O=C(Nc1ccc(-n2nc(C(F)(F)F)cc2C(F)(F)F)cc1)c1ccc(O)cc1 [Example 73, N-[4-[3,5-bis(trifluoromethyl)-1H-pyrazol-1-yl]phenyl]-4-hydroxybenzamide]	> 245 °C	93%	388 nM	–	–	–
CC(=O)c1ccc(C(=O)Nc2ccc(-n3nc(C(F)(F)F)cc3C(F)(F)F)cc2)cc1 [Example 119, 4-Acetyl-N-[4-[3,5-bis(trifluoromethyl)-1H-pyrazol-1-yl]phenyl]benzamide]	203 to 204 °C	100%	572 nM	–	–	–
Cc1noc(C)c1C(=O)Nc1ccc(-n2nc(C(F)(F)F)cc2C(F)(F)F)c(C(F)(F)F)c1 [Example 275, N-[4-[3,5-bis(trifluoromethyl)-1H-pyrazol-1-yl]-3-(trifluoromethyl)phenyl]-3,5-dimethyl-4-isoxazolecarboxamide]	61 to 63 °C	–	–	8%	–	–
O=C(Nc1ccc(-n2nc(C(F)(F)F)cc2C(F)(F)F)cc1)c1cnns1 [Example 244, N-[4-[3,5-bis(trifluoromethyl)-1H-pyrazol-1-yl]phenyl]-1,2,3-thiadiazole-5-carboxamide]	213 to 214 °C	94%	523 nM	–	–	–
O=C(Nc1ccc(-n2nc(C(F)(F)F)cc2C(F)(F)F)cc1)c1ccccc1Cl [Example 91, N-[4-[3,5-bis(trifluoromethyl)-1H-pyrazol-1-yl]phenyl]-2-chlorobenzamide]	155 to 157 °C	–	138 nM	–	99%	–
O=C(Nc1ccc(-n2nc(C(F)(F)F)cc2C(F)(F)F)cc1)C1CC1 [Example 1, N-[4-[3,5-bis(trifluoromethyl)-1H-pyrazol-1-yl]phenyl]cyclopropanecarboxamide]	204 to 205 °C	–	–	68%	–	–
CS(=O)(=O)c1cccc(C(=O)Nc2ccc(-n3nc(C(F)(F)F)cc3C(F)(F)F)cc2)c1 [Example 126, N-[4-[3,5-bis(trifluoromethyl)-1H-pyrazol-1-yl]phenyl]-3-(methylsulfonyl)benzamide]	194 to 195 °C	79%	4910 nM	–	–	–
Cc1nnsc1C(=O)Nc1ccc(-n2nc(C(F)(F)F)cc2O)cc1 [Example 288, N-[4-[5-hydroxy-3-(trifluoromethyl)-1H-pyrazol-1-yl]phenyl]-4-methyl-1,2,3-thiadiazole-5-carboxamide]	177 to 179 °C	–	–	16%	–	–
N#Cc1cccc(C(=O)Nc2ccc(-n3nc(C(F)(F)F)cc3C(F)(F)F)cc2)c1 [Example 137, N-[4-[3,5-bis(trifluoromethyl)-1H-pyrazol-1-yl]phenyl]-3-cyanobenzamide]	162 to 163 °C	–	120 nM	–	98%	–
Cc1c(C(=O)Nc2ccc(-n3nc(C(F)(F)F)cc3C(F)(F)F)cc2)cccc1[N+](=O)[O-] [Example 15, N-[4-[3,5-bis(trifluoromethyl)-1H-pyrazol-1-yl]phenyl]-2-methyl-3-nitrobenzamide]	194 to 195 °C	–	274 nM	–	99%	–
NC(=O)c1ccc(C(=O)Nc2ccc(-n3nc(C(F)(F)F)cc3C(F)(F)F)cc2)cc1 [Example 133, N-[4-[3,5-bis(trifluoromethyl)-1H-pyrazol-1-yl]phenyl]-1,4-benzenedicarboxamide]	290 to 291 °C	97%	315 nM	–	–	–
Cn1cccc1C(=O)Nc1ccc(-n2nc(C(F)(F)F)cc2C(F)(F)F)cc1 [Example 248, N-[4-[3,5-bis(trifluoromethyl)-1H-pyrazol-1-yl]phenyl]-1-methyl-1H-pyrrole-2-carboxamide]	148 to 149 °C	100%	143 nM	–	–	–
O=C(Nc1ccc(-n2nc(C(F)(F)F)cc2C(F)(F)F)cc1)Nc1ccc(Cl)cc1[N+](=O)[O-] [Example 48, N-[4-[3,5-bis(trifluoromethyl)-1H-pyrazol-1-yl]phenyl]-N′-(4-chloro-2-nitrophenyl)urea]	225 to 227 °C	–	468 nM	85%	–	–
Cc1ccc(NC(=O)Nc2ccc(-n3nc(C(F)(F)F)cc3C(F)(F)F)cc2)c([N+](=O)[O-])c1 [Example 43, N-[4-[3,5-bis(trifluoromethyl)-1H-pyrazol-1-yl]phenyl]-N′-(4-methyl-2-nitrophenyl)urea]	213 to 214 °C	98%	354 nM	–	–	–
COc1cc(C(=O)Nc2ccc(-n3nc(C(F)(F)F)cc3C(F)(F)F)cc2)cs1 [Example 259, N-[4-[3,5-bis(trifluoromethyl)-1H-pyrazol-1-yl]phenyl]-5-methoxy-3-thiophenecarboxamide]	213 to 214 °C	–	–	5%	–	–
Nc1ccc(C(=O)Nc2ccc(-n3nc(C(F)(F)F)cc3C(F)(F)F)cc2)cc1 [Example 59, 4-Amino-N-[4-[3,5-bis(trifluoromethyl)-1H-pyrazol-1-yl]phenyl]benzamide]	> 240 °C	–	–	54%	–	–
